The test concerns the target T1, Angiotensin-II-receptor (Rattus norvegicus, UniProt P25095).
T1 construct: The tissue (rat's lung) is homogenised in tris buffer; from tissue; host or cells: rat lung homogenate
T1 sequence (P25095 1-359): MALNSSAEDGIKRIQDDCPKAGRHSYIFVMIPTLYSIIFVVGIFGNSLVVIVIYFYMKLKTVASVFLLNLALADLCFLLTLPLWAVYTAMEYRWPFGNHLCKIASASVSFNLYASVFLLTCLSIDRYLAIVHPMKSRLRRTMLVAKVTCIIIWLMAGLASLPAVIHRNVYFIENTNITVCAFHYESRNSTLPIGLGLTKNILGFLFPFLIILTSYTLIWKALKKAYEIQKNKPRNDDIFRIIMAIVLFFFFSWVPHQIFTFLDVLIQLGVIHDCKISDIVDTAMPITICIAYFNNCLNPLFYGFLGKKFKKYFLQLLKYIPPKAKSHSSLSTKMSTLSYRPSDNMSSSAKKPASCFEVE
Put plainly: Angiotensin-II-receptor binding (rat lung homogenate, [^125 I]-angiotensin-II displacement). The settings on record: rat's lung homogenate; 50 pM [^125 I]-angiotensin-II; 60 minutes at 37° C.; pH 7.40. On the procedure: The tissue (rat's lung) is homogenised in tris buffer (50 mMol Tris, 150 mMol NaCl, 5 mMol EDTA, pH 7.40) and centrifuged twice for 20 minutes each time at 20,000×g. The resulting pellet is resuspended in incubation buffer (50 mMol Tris, 5 mMol MgCl2, 0.2% BSA, pH 7.40) 1:75, based on the moist weight of the tissue. Each 0.1 ml of homogenate is incubated for 60 minutes at 37° C. with 50 pM [^125 I]-angiotensin-II (NEN, Dreieich, FRG) and increasing concentrations of the test substance in a total volume of 0.25 ml. The incubation is terminated by rapid filtration through glass fibre filter mats. The filters are each washed with 4 ml of ice cold buffer (25 mMol Tris, 2.5 mMol MgCl2, 0.1% BSA, pH 7.40). The bound radioactivity is measured in a gamma-counter. The corresponding IC50 value is determined from the dosage-activity curve.
The compound `CCCc1nc2c(C)cc(-c3nc4ccccc4n3C)cc2n1Cc1ccc(-c2ccccc2S(=O)(=O)O)cc1` [B] had an IC50 of 8 nM.
The figure for `CCc1nc2c(C)cc(-c3cn4c(n3)CCCC4)cc2n1Cc1ccc(-c2ccccc2S(=O)(=O)NC(=O)c2ccccc2)cc1` [I] is 36 nM; for `CCc1nc2c(C)cc(-c3cn4c(n3)CCCC4)cc2n1Cc1ccc(-c2ccccc2S(=O)(=O)NC(=O)NC2CCCCC2)cc1` [K] it is 73 nM; for `CCCc1nc2c(C)cc(-c3nc4ccccc4n3C)cc2n1Cc1ccc(-c2ccccc2C=C2SC(=O)NC2=O)cc1` [A] it is 94 nM.
The compound `CCCc1nc2c(C)cc(-c3nc4ccccc4n3C)cc2n1Cc1ccc(-c2ccccc2S(=O)(=O)NC(=O)NCc2ccc(OC)cc2)cc1` [F] showed an IC50 of 110 nM.
The compound `CCCc1nc2c(C)cc(-c3nc4ccccc4n3C)cc2n1Cc1ccc(-c2ccccc2S(=O)(=O)NC(=O)NC2CCCCC2)cc1` [G] showed a half-inhibitory concentration (IC50) of 310 nM.
On to `CCc1nc2c(C)cc(-c3cn4c(n3)CCCC4)cc2n1Cc1ccc(-c2ccccc2S(=O)(=O)O)cc1` [C], for which the IC50 turned out to be 3.4 nM.
On to `CCCCc1nc2c(C)cc(N3CCCS3(=O)=O)cc2n1Cc1ccc(-c2ccccc2S(=O)(=O)NC(=O)c2ccccc2)cc1` [J], for which the IC50 stood at 13.9 nM.
Compound `CCc1nc2c(C)cc(-c3cn4c(n3)CCCC4)cc2n1Cc1ccc(-c2ccccc2NC(=O)C(F)(F)F)cc1` [E] had an IC50 of 28 nM.
The figure for `CCCc1nc2c(C)cc(-c3nc4ccccc4n3C)cc2n1Cc1ccc(-c2ccccc2NC(=O)C(F)(F)F)cc1` [D] is 40 nM; for `CCCc1nc2c(C)cc(-c3nc4ccccc4n3C)cc2n1Cc1ccc(-c2ccccc2S(=O)(=O)NC(=O)c2ccccc2)cc1` [H] it is 78 nM.

Source of the values: patent publication US5565469A, “Benzimidazoles and pharmaceutical compositions containing them” (Dr. Karl Thomae GmbH, priority 1994, dated 1996).
